Patent US12304890B2, “R-type pyridyloxycarboxylic acid, salt and ester derivative thereof, and preparation method therefor, and herbicidal composition and application thereof” (Qingdao Kingagroot Chemical Compound Co., Ltd., priority 2018, dated 2025)

Assays:
Type in all cases: in vivo
[1] = tested on: Digitaria sanguinalis; assay: Post-emergence test experiment, Digitaria sanguinalis; settings: 1000 g a.i./ha, 3 weeks in greenhouse, fresh weight inhibition
Procedure, shortened: (§1)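 Seeds sown under 0.5-2 cm soil; sprayed post-emergence at 2-3 leaves with acetone/tween-80 solution plus 1.5 L/ha methyl oleate EC; greenhouse 3 wk; % fresh weight inhibition.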

[2] = tested on: Monocotyledonous and dicotyledonous weed seeds and main crop seeds; assay: Post-emergence test experiment, other weeds and crops (Table 4, 1000 g a.i./ha); settings: 3 weeks in greenhouse, fresh weight inhibition
Procedure, shortened: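 Growth inhibition is scored on fresh weight. Spray solutions were made in acetone with tween-80, diluted in water, plus 1.5 L/ha methyl oleate emulsible concentrate. Plants from greenhouse-grown weed and crop seeds were treated post-emergence at 2-3 leaves, 2 weeks after sowing.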

[3] = tested on: Echinochloa crusgalli; assay: Post-emergence test experiment, Echinochloa crusgalli; settings: 1000 g a.i./ha, 3 weeks in greenhouse, fresh weight inhibition
Procedure, shortened: as §1

Row | SMILES | Activity level (growth inhibition rate), Digitaria sanguinalis [1] | Activity level (growth inhibition rate), Abutilon theophrasti Medic. [2] | Activity level (growth inhibition rate), Galium aparine [2] | Activity level (growth inhibition rate), Monochoria Vaginalis [2] | Activity level (growth inhibition rate), Echinochloa crusgalli [3]
1 | COCCOC(=O)C(C)Oc1nc(C)c(Cl)c(N)c1Cl (centres unmarked) [Compound 2-270] | 5 (Level 5: the growth inhibition rate is greater than 85%) | 5 (Level 5: the growth inhibition rate is greater than 85%) | 5 (Level 5: the growth inhibition rate is greater than 85%) | 5 (Level 5: the growth inhibition rate is greater than 85%) | 5 (Level 5: the growth inhibition rate is greater than 85%)
2 | COCCCSC(=O)C(C)Oc1nc(F)c(Cl)c(N)c1Cl (centres unmarked) [Compound 2-272] | 5 (Level 5: the growth inhibition rate is greater than 85%) | 5 (Level 5: the growth inhibition rate is greater than 85%) | 5 (Level 5: the growth inhibition rate is greater than 85%) | 5 (Level 5: the growth inhibition rate is greater than 85%) | 5 (Level 5: the growth inhibition rate is greater than 85%)
3 | C=CCOC(=O)C(C)Oc1nc(F)c(Cl)c(N)c1Cl (centres unmarked) [Compound 2-273] | 5 (Level 5: the growth inhibition rate is greater than 85%) | 5 (Level 5: the growth inhibition rate is greater than 85%) | 5 (Level 5: the growth inhibition rate is greater than 85%) | 5 (Level 5: the growth inhibition rate is greater than 85%) | 5 (Level 5: the growth inhibition rate is greater than 85%)
4 | C#CCSC(=O)C(C)Oc1nc(F)c(Cl)c(N)c1Cl (centres unmarked) [Compound 2-274] | 5 (Level 5: the growth inhibition rate is greater than 85%) | 5 (Level 5: the growth inhibition rate is greater than 85%) | 5 (Level 5: the growth inhibition rate is greater than 85%) | 5 (Level 5: the growth inhibition rate is greater than 85%) | 5 (Level 5: the growth inhibition rate is greater than 85%)
5 | C#CCOC(=O)C(C)Oc1nc(F)c(Cl)c(N)c1Cl (centres unmarked) [Compound 2-275] | 5 (Level 5: the growth inhibition rate is greater than 85%) | 5 (Level 5: the growth inhibition rate is greater than 85%) | 5 (Level 5: the growth inhibition rate is greater than 85%) | 5 (Level 5: the growth inhibition rate is greater than 85%) | 5 (Level 5: the growth inhibition rate is greater than 85%)
6 | C[C@@H](Oc1nc(F)c(Cl)c(N)c1Cl)C(=O)OCCF [Compound 2-276] | 5 (Level 5: the growth inhibition rate is greater than 85%) | 5 (Level 5: the growth inhibition rate is greater than 85%) | 5 (Level 5: the growth inhibition rate is greater than 85%) | 5 (Level 5: the growth inhibition rate is greater than 85%) | 5 (Level 5: the growth inhibition rate is greater than 85%)
7 | C[C@@H](Oc1nc(F)c(Cl)c(N)c1Cl)C(=O)OCCCl [Compound 2-277] | 5 (Level 5: the growth inhibition rate is greater than 85%) | 5 (Level 5: the growth inhibition rate is greater than 85%) | 5 (Level 5: the growth inhibition rate is greater than 85%) | 5 (Level 5: the growth inhibition rate is greater than 85%) | 5 (Level 5: the growth inhibition rate is greater than 85%)
8 | C[C@@H](Oc1nc(F)c(Cl)c(N)c1Cl)C(=O)OCCBr [Compound 2-278] | 5 (Level 5: the growth inhibition rate is greater than 85%) | 5 (Level 5: the growth inhibition rate is greater than 85%) | 5 (Level 5: the growth inhibition rate is greater than 85%) | 5 (Level 5: the growth inhibition rate is greater than 85%) | 5 (Level 5: the growth inhibition rate is greater than 85%)
9 | C[C@@H](Oc1nc(F)c(Cl)c(N)c1Cl)C(=O)OCC(F)F [Compound 2-279] | 5 (Level 5: the growth inhibition rate is greater than 85%) | 5 (Level 5: the growth inhibition rate is greater than 85%) | 5 (Level 5: the growth inhibition rate is greater than 85%) | 5 (Level 5: the growth inhibition rate is greater than 85%) | 5 (Level 5: the growth inhibition rate is greater than 85%)
10 | C[C@@H](Oc1nc(F)c(Cl)c(N)c1Cl)C(=O)OCC(F)(F)F [Compound 2-281] | 5 (Level 5: the growth inhibition rate is greater than 85%) | 5 (Level 5: the growth inhibition rate is greater than 85%) | 5 (Level 5: the growth inhibition rate is greater than 85%) | 5 (Level 5: the growth inhibition rate is greater than 85%) | 5 (Level 5: the growth inhibition rate is greater than 85%)
11 | CC(Oc1nc(F)c(Cl)c(N)c1Cl)C(=O)OCC(F)(F)C(F)(F)F (centres unmarked) [Compound 2-282] | 5 (Level 5: the growth inhibition rate is greater than 85%) | 5 (Level 5: the growth inhibition rate is greater than 85%) | 5 (Level 5: the growth inhibition rate is greater than 85%) | 5 (Level 5: the growth inhibition rate is greater than 85%) | 5 (Level 5: the growth inhibition rate is greater than 85%)
12 | CC(Oc1nc(F)c(Cl)c(N)c1Cl)C(=O)OCCN (centres unmarked) [Compound 2-284] | 5 (Level 5: the growth inhibition rate is greater than 85%) | 5 (Level 5: the growth inhibition rate is greater than 85%) | 5 (Level 5: the growth inhibition rate is greater than 85%) | 5 (Level 5: the growth inhibition rate is greater than 85%) | 5 (Level 5: the growth inhibition rate is greater than 85%)
13 | CC(Oc1nc(F)c(Cl)c(N)c1Cl)C(=O)OCC=CCl (centres unmarked) [Compound 2-285] | 5 (Level 5: the growth inhibition rate is greater than 85%) | 5 (Level 5: the growth inhibition rate is greater than 85%) | 5 (Level 5: the growth inhibition rate is greater than 85%) | 5 (Level 5: the growth inhibition rate is greater than 85%) | 5 (Level 5: the growth inhibition rate is greater than 85%)
14 | CC(Oc1nc(F)c(Cl)c(N)c1Cl)C(=O)OCC(Cl)=C(Cl)Cl (centres unmarked) [Compound 2-286] | 5 (Level 5: the growth inhibition rate is greater than 85%) | 5 (Level 5: the growth inhibition rate is greater than 85%) | 5 (Level 5: the growth inhibition rate is greater than 85%) | 5 (Level 5: the growth inhibition rate is greater than 85%) | 5 (Level 5: the growth inhibition rate is greater than 85%)
15 | C=CCOC(=O)C(C)(C)OC(=O)C(C)Oc1nc(F)c(Cl)c(N)c1Cl (centres unmarked) [Compound 2-288] | 5 (Level 5: the growth inhibition rate is greater than 85%) | 5 (Level 5: the growth inhibition rate is greater than 85%) | 5 (Level 5: the growth inhibition rate is greater than 85%) | 5 (Level 5: the growth inhibition rate is greater than 85%) | 5 (Level 5: the growth inhibition rate is greater than 85%)
16 | CC(Oc1nc(F)c(Cl)c(N)c1Cl)C(=O)OCC(=O)N(C)C (centres unmarked) [Compound 2-289] | 5 (Level 5: the growth inhibition rate is greater than 85%) | 5 (Level 5: the growth inhibition rate is greater than 85%) | 5 (Level 5: the growth inhibition rate is greater than 85%) | 5 (Level 5: the growth inhibition rate is greater than 85%) | 5 (Level 5: the growth inhibition rate is greater than 85%)
